Measurements as given in PubChem BioAssay AID1259407 (Chemical Carcinogenesis Research Information System (CCRIS), 2018).
Active and inactive are the calls of the source. How the calls were made is not given here.

System: CCRIS mutagenicity, Ames/micronucleus/aberration tests
Experiment: CCRIS mutagenicity studies
[1] = Test System: AMES SALMONELLA TYPHIMURIUM, Strain/Indicator: TA98, Metabolic Activation: NONE, Method: PREINCUBATION
[2] = Test System: AMES SALMONELLA TYPHIMURIUM, Strain/Indicator: TA100, Metabolic Activation: NONE, Method: PREINCUBATION

Measured: mutagenic call

FC(F)Cl
active: Test System: AMES SALMONELLA TYPHIMURIUM, Strain/Indicator: TA100, Metabolic Activation: RAT LIVER S-9, PHENOBARBITAL AND BETA-NAPHTHOFLAVONE (40%), Method: GAS EXPOSURE active; positive | Test System: AMES SALMONELLA TYPHIMURIUM, Strain/Indicator: TA100, Metabolic Activation: RAT, LIVER, S-9, PHENOBARBITAL AND 5,6-BENZOFLAVONE, Method: GAS EXPOSURE active; positive | Test System: AMES SALMONELLA TYPHIMURIUM, Strain/Indicator: TA1535, Metabolic Activation: NONE, Method: GAS EXPOSURE active; positive | Test System: AMES SALMONELLA TYPHIMURIUM, Strain/Indicator: TA1535, Metabolic Activation: RAT LIVER S-9, PHENOBARBITAL AND BETA-NAPHTHOFLAVONE (40%), Method: GAS EXPOSURE active; positive | Test System: AMES SALMONELLA TYPHIMURIUM, Strain/Indicator: TA1535, Metabolic Activation: RAT, LIVER, S-9, AROCLOR 1254, Method: DESICCATOR active; positive | Test System: AMES SALMONELLA TYPHIMURIUM, Strain/Indicator: TA1535, Metabolic Activation: RAT, LIVER, S-9, PHENOBARBITAL AND 5,6-BENZOFLAVONE, Method: GAS EXPOSURE active; positive
inactive: End Point: IN VITRO CHROMOSOMAL ABERRATIONS, Test System: CHL CELLS, Metabolic Activation: NONE inactive; negative | End Point: IN VITRO CHROMOSOMAL ABERRATIONS, Test System: CHL CELLS, Metabolic Activation: RAT, LIVER, S-9, SODIUM PHENOBARBITAL AND 5,6-BENZOFLAVONE inactive; negative | Test System: AMES SALMONELLA TYPHIMURIUM, Strain/Indicator: TA98, Metabolic Activation: NONE, Method: GAS EXPOSURE inactive; negative | Test System: AMES SALMONELLA TYPHIMURIUM, Strain/Indicator: TA98, Metabolic Activation: RAT LIVER S-9, PHENOBARBITAL AND BETA-NAPHTHOFLAVONE (40%), Method: GAS EXPOSURE inactive; negative | Test System: AMES SALMONELLA TYPHIMURIUM, Strain/Indicator: TA98, Metabolic Activation: RAT, LIVER, S-9, PHENOBARBITAL AND 5,6-BENZOFLAVONE, Method: GAS EXPOSURE inactive; negative | Test System: AMES SALMONELLA TYPHIMURIUM, Strain/Indicator: TA1537, Metabolic Activation: NONE, Method: GAS EXPOSURE inactive; negative | Test System: AMES SALMONELLA TYPHIMURIUM, Strain/Indicator: TA1537, Metabolic Activation: RAT LIVER S-9, PHENOBARBITAL AND BETA-NAPHTHOFLAVONE (40%), Method: GAS EXPOSURE inactive; negative | Test System: AMES SALMONELLA TYPHIMURIUM, Strain/Indicator: TA1537, Metabolic Activation: RAT, LIVER, S-9, PHENOBARBITAL AND 5,6-BENZOFLAVONE, Method: GAS EXPOSURE inactive; negative | Test System: E. COLI, Strain/Indicator: WP2 UVRA, Metabolic Activation: NONE, Method: GAS EXPOSURE inactive; negative | Test System: E. COLI, Strain/Indicator: WP2 UVRA, Metabolic Activation: RAT, LIVER, S-9, PHENOBARBITAL AND 5,6-BENZOFLAVONE, Method: GAS EXPOSURE inactive; negative | Test System: E.COLI, Strain/Indicator: WP2UVRA, Metabolic Activation: NONE, Method: GAS EXPOSURE inactive; negative | Test System: E.COLI, Strain/Indicator: WP2UVRA, Metabolic Activation: RAT LIVER S-9, PHENOBARBITAL AND BETA-NAPHTHOFLAVONE (40%), Method: GAS EXPOSURE inactive; negative

CC(=O)c1cccc(N=[N+]([O-])c2ccc(N)c(C(C)=O)c2C)c1C
inactive: [1] inactive; negative | Test System: AMES SALMONELLA TYPHIMURIUM, Strain/Indicator: TA98, Metabolic Activation: RAT, LIVER, S-9, PHENOBARBITAL AND 5,6-BENZOFLAVONE, Method: PREINCUBATION inactive; negative | [2] inactive; negative | Test System: AMES SALMONELLA TYPHIMURIUM, Strain/Indicator: TA100, Metabolic Activation: RAT, LIVER, S-9, PHENOBARBITAL AND 5,6-BENZOFLAVONE, Method: PREINCUBATION inactive; negative

Cc1cc2ncccc2c2nc(N)n(C)c12
inactive: Test System: AMES SALMONELLA TYPHIMURIUM, Strain/Indicator: TA98(1,8-DNP6), Metabolic Activation: RAT, LIVER, S-9, Method: STANDARD PLATE inactive; negative | [1] inactive; negative | Test System: AMES SALMONELLA TYPHIMURIUM, Strain/Indicator: TA98, Metabolic Activation: NONE, Method: STANDARD PLATE inactive; negative | [2] inactive; negative | Test System: AMES SALMONELLA TYPHIMURIUM, Strain/Indicator: TA100, Metabolic Activation: NONE, Method: STANDARD PLATE inactive; negative
active: End Point: IN VITRO MICRONUCLEUS, Test System: CHL/IU CELLS, Metabolic Activation: RAT, LIVER, S-9, PHENOBARBITAL AND 5,6-BENZOFLAVONE active; positive | Test System: AMES SALMONELLA TYPHIMURIUM, Strain/Indicator: TA98, Metabolic Activation: HAMSTER, LIVER, HEPATOCYTES, Method: STANDARD PLATE active; positive | Test System: AMES SALMONELLA TYPHIMURIUM, Strain/Indicator: TA98, Metabolic Activation: HUMAN, BLOOD, CYTOSOL, Method: PREINCUBATION active; positive | Test System: AMES SALMONELLA TYPHIMURIUM, Strain/Indicator: TA98, Metabolic Activation: RAT, LIVER, HEPATOCYTES, AROCLOR 1254, Method: PREINCUBATION active; positive | Test System: AMES SALMONELLA TYPHIMURIUM, Strain/Indicator: TA98, Metabolic Activation: RAT, LIVER, HEPATOCYTES, Method: PREINCUBATION active; positive | Test System: AMES SALMONELLA TYPHIMURIUM, Strain/Indicator: TA98, Metabolic Activation: RAT, LIVER, HEPATOCYTES, Method: STANDARD PLATE active; positive | Test System: AMES SALMONELLA TYPHIMURIUM, Strain/Indicator: TA98, Metabolic Activation: RAT, LIVER, S-9, AROCLOR 1254, Method: PREINCUBATION active; positive | Test System: AMES SALMONELLA TYPHIMURIUM, Strain/Indicator: TA98, Metabolic Activation: RAT, LIVER, S-9, N-BENZYLIMIDAZOLE, Method: PREINCUBATION active; positive | Test System: AMES SALMONELLA TYPHIMURIUM, Strain/Indicator: TA98, Metabolic Activation: RAT, LIVER, S-9, Method: STANDARD PLATE active; positive | Test System: AMES SALMONELLA TYPHIMURIUM, Strain/Indicator: TA98, Metabolic Activation: S-9, Method: STANDARD PLATE active; positive | Test System: AMES SALMONELLA TYPHIMURIUM, Strain/Indicator: TA98, Method: STANDARD PLATE active; positive | Test System: AMES SALMONELLA TYPHIMURIUM, Strain/Indicator: TA100, Metabolic Activation: RAT, LIVER, S-9, AROCLOR 1254, Method: PREINCUBATION active; positive | Test System: AMES SALMONELLA TYPHIMURIUM, Strain/Indicator: TA100, Metabolic Activation: RAT, LIVER, S=9, AROCLOR 1254, Method: PREINCUBATION active; positive | Test System: AMES SALMONELLA TYPHIMURIUM, Strain/Indicator: TA100, Metabolic Activation: S-9, Method: STANDARD PLATE active; positive | Test System: CHINESE HAMSTER V-79, Strain/Indicator: V-79/6-THIOGUANINE, Metabolic Activation: HAMSTER, PANCREAS DUCT, EPITHELIAL CELLS active; positive | Test System: CHINESE HAMSTER V-79, Strain/Indicator: V-79/6-THIOGUANINE, Metabolic Activation: HUMAN, PANCREAS DUCT, EPITHELIAL CELLS active; positive | Test System: CHINESE HAMSTER V-79, Strain/Indicator: V-79/6-THIOGUANINE, Metabolic Activation: RAT, LIVER, HEPATOCYTES, AROCLOR 1254 active; positive | Test System: UDS HAMSTER HEPATOCYTES, Strain/Indicator: THY INCORP, Metabolic Activation: NONE, Method: LIQUID SCINTILLATION COUNTING active; positive | Test System: UDS HUMAN HEPATOCYTES, Strain/Indicator: THY INCORP, Metabolic Activation: NONE, Method: AUTORADIOGRAPHY active; positive | Test System: UDS MOUSE HEPATOCYTES, Strain/Indicator: THY INCORP, Metabolic Activation: NONE, Method: AUTORADIOGRAPHY active; positive | Test System: UDS RAT HEPATOCYTES, Strain/Indicator: THY INCORP, Metabolic Activation: NONE, Method: AUTORADIOGRAPHY active; positive | Test System: UDS RAT HEPATOCYTES, Strain/Indicator: THY INCORP, Metabolic Activation: NONE, Method: LIQUID SCINTILLATION COUNTING active; positive

Cl[Si](Cl)Cl
inactive: Test System: Mouse lymphoma, Strain/Indicator: L5178Y (tk+/tk-), Metabolic Activation: None, Method: Suspension/plate inactive; negative | Test System: Mouse lymphoma, Strain/Indicator: L5178Y (tk+/tk-), Metabolic Activation: Rat, Liver, S-9, Aroclor 1254, Method: Suspension/plate inactive; negative
